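In this assay, cells in 96-well plates receive the compound at five concentrations for 48 hours. Endpoints are linearly interpolated between the surrounding concentrations. GI50 is the concentration that inhibits growth by half. At the TGI there is no net growth.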 Where a SMILES comes first, the peptide text is derived from it. The star is where a group is joined. Cbz = O=C(OCc1ccccc1)*
Tests used:
Experiment in all cases: DTP human tumour cell line panel, 48 h
SN12C renal = test system: SN12C renal
SK-MEL-2 melanoma = test system: SK-MEL-2 melanoma
UO-31 renal = test system: UO-31 renal
DLD-1 colon = test system: DLD-1 colon
LXFL 529 NSCLC = test system: LXFL 529 NSCLC
HOP-18 NSCLC = test system: HOP-18 NSCLC
KM20L2 colon = test system: KM20L2 colon
M19-MEL melanoma = test system: M19-MEL melanoma
DMS 114 small cell lung = test system: DMS 114 small cell lung
DMS 273 small cell lung = test system: DMS 273 small cell lung
SNB-78 CNS = test system: SNB-78 CNS
XF 498 CNS = test system: XF 498 CNS

Compound	TGI (SN12C renal) [µM]	TGI (SK-MEL-2 melanoma) [µM]	TGI (UO-31 renal) [µM]	further results
O=C(O)CCC(NC(=O)OCc1ccccc1)C(=O)NC(Cc1cnc[nH]1)C(=O)O (stereo not drawn) (Cbz-Glu-His-OH; configuration not given here)	> 100	> 100	> 100	
CCOC1OC(=O)c2cc3ccc4c(c3c(-c3ccc5c(c3)OCO5)c21)OCO4 (centres undefined)	> 100	> 100	> 100	
CCCCCCOC(=O)/C=C/[C@]1(CO)C/C(=C/CC(C(C)C)C(C)C)C(=O)O1		30.7	17.8	
CCOC(=O)CC[C@H](NC(=O)[C@H](N)Cc1ccc(N(CCCl)CCCl)cc1)C(=O)OCC	> 62.4	63.2	29.8	
O=C1/C(=C/c2ccccc2S)N=C(c2ccccc2)N1c1nc2c(Cl)cc(Cl)cc2s1	44.2	52.9	48.1	
COC(=O)c1ccccc1/C=C1\Cc2ccc(C)c(C)c2C1=O	> 100	> 100	> 100	
Cc1nc2c(nc1C)-c1[nH]c3c(c1C(=O)C2=O)CCCC3=O	3.28	3.29	10.3	
N#Cc1c(N)nc2n[nH]c(N)c2c1-c1ccc(Cl)cc1	51.6	6.57	19.9	
CCC(C)OC(=O)/C(Br)=C1/OC(=O)c2ccccc2-c2ccccc21 (centres undefined)	> 100	> 100	73	
O=C(O)C(NCc1ccccc1)C(NCc1ccccc1)C(=O)O (centres undefined)	> 100	> 100	> 100	
O=C(Nc1nc(C23CC4CC(CC(C4)C2)C3)cs1)c1cc2ccc(O)cc2oc1=O	30.4		31.2	
CC1CCC(C(C)C)C(OC(=O)NCn2cc(-c3ccccc3)nn2)C1 (centres undefined)	> 100	> 100		
COC(=O)C1=C(O)C(C(=O)OC)[C@]2(O)[C@H](C(=O)OC)[C@H]1C[C@@H](c1ccc(C(F)(F)F)cc1)[C@H]2C(=O)OC (some centres undefined)	27.6	15.1	8.42	
CCOC(=O)C12OC(CCC1=O)C(C(=O)OC)=C2C(=O)OC (centres undefined)	> 10	> 10	> 10	
CN(C)CCCN1CCC2(CCC(C(C)(C)C)CC2)CC1	20.6	3.26	3.4	
CCOc1ccccc1NC(=O)C(=O)CC(=O)c1sc(Nc2nnc(-c3ccc(Cl)c(Cl)c3)o2)nc1C	> 100	> 100	> 100	TGI (DLD-1 colon): > 100 µM; TGI (LXFL 529 NSCLC): > 100 µM; TGI (HOP-18 NSCLC): > 100 µM; TGI (KM20L2 colon): > 100 µM; TGI (M19-MEL melanoma): > 100 µM; TGI (DMS 114 small cell lung): > 100 µM; TGI (DMS 273 small cell lung): > 100 µM; TGI (SNB-78 CNS): > 100 µM
O=C1CCCC1CN1CCCC1 (centres undefined)	32.6	18.5	17.6	
S=C(S)NCNC(=S)S.[Zn+2]	> 100		> 100	

Compound	TGI (SN12C renal) [µM]	TGI (SK-MEL-2 melanoma) [µM]	TGI (UO-31 renal) [µM]	further results
COc1cc2c(C)cc(O)cc2c2cc(O)c(C)cc12	19.8	31.3	19.1	
CC(CO)(CO)N1C(=O)C2C3C=CC(C3)C2C1=O (centres undefined)	> 100	> 100	> 100	
COc1cc(NS(C)(=O)=O)ccc1Nc1c2ccccc2nc2c1[nH]c1ccc(NC3OC(CO)C(O)C(O)C3O)cc12 (centres undefined)	0.387	1.36	1.19	TGI (DLD-1 colon): 1.93 µM; TGI (LXFL 529 NSCLC): 2.46 µM; TGI (HOP-18 NSCLC): 1.65 µM; TGI (KM20L2 colon): 1.87 µM; TGI (M19-MEL melanoma): 1.75 µM; TGI (DMS 114 small cell lung): 0.0784 µM; TGI (DMS 273 small cell lung): 0.261 µM; TGI (SNB-78 CNS): 9.3 µM; TGI (XF 498 CNS): 0.832 µM
O=c1cc(-c2cccc3ccccc23)[nH]c2ncccc12	> 100	> 100	> 100	GI50 (SN12C renal): 0.149 µM; GI50 (SK-MEL-2 melanoma): 0.0136 µM; GI50 (UO-31 renal): 0.0741 µM
Cn1c(=O)n(C2(C)C[Se]C2)c2ccccc21	> 100	> 100	> 100	TGI (DLD-1 colon): > 100 µM; TGI (LXFL 529 NSCLC): > 100 µM; TGI (KM20L2 colon): > 100 µM; TGI (M19-MEL melanoma): > 100 µM; TGI (DMS 273 small cell lung): > 100 µM; TGI (SNB-78 CNS): > 100 µM
Nc1nc(N)c2c3c(cnc2n1)CC(c1ccccc1)CC3 (centres undefined)	53.3	> 100		
CC#CCOC(=O)c1ccccc1OC(C)=O	> 100	> 100	> 100	
Nc1ncnc2c1ncn2[C@@H]1C[C@@H]1CO	> 100	> 100	> 100	
O=C(Oc1ccccn1)c1cc2cc(CCl)ccc2oc1=O	56.7	> 100	> 100	
CC(C)=CC[C@]12CCN[C@H]1N(S(=O)(=O)c1ccccc1)c1ccccc12	26.4	31.6	33.3	
CCOC(=O)CN1C(=O)c2ccc(NC(=O)C(=O)O)cc2S1(=O)=O	> 100	> 100	> 100	
S=c1sc2c(Cl)nc(Cl)nc2n1-c1ccccc1	> 100	> 100	> 100	TGI (DLD-1 colon): 29.9 µM; TGI (LXFL 529 NSCLC): 31.7 µM; TGI (HOP-18 NSCLC): > 100 µM; TGI (KM20L2 colon): > 100 µM; TGI (M19-MEL melanoma): 29.9 µM; TGI (DMS 114 small cell lung): 27.3 µM; TGI (DMS 273 small cell lung): > 100 µM; TGI (SNB-78 CNS): > 100 µM; TGI (XF 498 CNS): > 100 µM
CC12CC(c3ccccc3O1)C(C(=O)Nc1ccc(Cl)cc1Cl)C(=O)N2 (centres undefined)		> 100	37.7	
Cc1ccnc2[nH]c3ccccc3c(=O)c12	52.4	68.7	> 100	
COc1ccc(/C=C2\N=C(SC)N(CN3CCOCC3)C2=O)cc1	> 100	> 100	> 100	
CC(=O)Oc1ccc2c(C)cc(=O)oc2c1OC(C)=O	> 100	> 100	76.9	
COc1ccc(S(=O)(=O)c2nnc(S(=O)(=O)Cc3ccccc3)s2)cc1	52.9	45.1	43.4	

Source: PubChem BioAssay (NCI)
